# Reference: paper PMC4493117, “Characterization of the Prokaryotic Sodium Channel NavSp Pore with a Microfluidic Bilayer Platform” (PLoS ONE, 2015)
# Molecular target: NavSp pore (Ruegeria pomeroyi, UniProt Q6TMY8)
# Conditions: drug added to both sides of bilayer; 0.5 M NaCl, 10 mM HEPES, pH 7.4; room temperature; POPE:POPG 1:1
# Sequence of NavSp pore (Q6TMY8 114-258 limits assumed): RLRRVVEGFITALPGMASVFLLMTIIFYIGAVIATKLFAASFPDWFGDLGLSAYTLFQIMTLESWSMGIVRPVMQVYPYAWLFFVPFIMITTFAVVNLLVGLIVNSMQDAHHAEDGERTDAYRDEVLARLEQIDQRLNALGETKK
smiles,measurement,value
COC(=O)C1=C(C)NC(C)=C(C(=O)OC)C1c1ccccc1[N+](=O)[O-] [nifedipine],IC50,2950 nM
